From ChEMBL document CHEMBL1201862, “PubChem BioAssay data set” (2004)
Activity calls are given as the source filed them.

Tests used:
[1] = target: DNA dC->dU-editing enzyme APOBEC-3A (Homo sapiens, UniProt P31941); test: SAR analysis of small molecule inhibitors of APOBEC3A DNA Deaminase via a fluorescence-based single-stranded DNA deaminase assay - Set 2.; type: functional; conditions: read-out: IC50_Mean
[2] = target: DNA dC->dU-editing enzyme APOBEC-3G (Homo sapiens, UniProt Q9HC16); test: SAR analysis of small molecule inhibitors of APOBEC3G DNA Deaminase via a fluorescence-based single-stranded DNA deaminase assay - Set 2.; type: functional; conditions: read-out: IC50_Mean
Chain of DNA dC->dU-editing enzyme APOBEC-3G (Q9HC16 whole entry): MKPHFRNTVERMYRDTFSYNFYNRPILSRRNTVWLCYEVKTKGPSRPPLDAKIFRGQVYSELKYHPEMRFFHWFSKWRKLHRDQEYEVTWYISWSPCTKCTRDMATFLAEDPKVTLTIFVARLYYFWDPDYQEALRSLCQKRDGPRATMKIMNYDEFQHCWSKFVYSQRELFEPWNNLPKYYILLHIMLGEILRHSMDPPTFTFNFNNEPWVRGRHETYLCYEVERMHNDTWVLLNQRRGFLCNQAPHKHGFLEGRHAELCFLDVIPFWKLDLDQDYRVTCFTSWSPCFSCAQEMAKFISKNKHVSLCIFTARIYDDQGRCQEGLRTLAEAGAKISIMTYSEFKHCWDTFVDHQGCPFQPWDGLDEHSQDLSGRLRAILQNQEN

Chain of DNA dC->dU-editing enzyme APOBEC-3A (P31941 whole entry): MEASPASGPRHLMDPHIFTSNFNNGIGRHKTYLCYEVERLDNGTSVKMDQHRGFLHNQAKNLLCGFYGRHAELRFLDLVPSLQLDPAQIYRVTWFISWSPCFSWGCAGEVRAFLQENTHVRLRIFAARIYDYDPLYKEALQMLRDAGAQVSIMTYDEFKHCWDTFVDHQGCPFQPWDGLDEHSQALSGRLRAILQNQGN

O=C(NCc1ccccc1)c1cc2ncc(Br)cn2n1
IC50 [1]: > 99 µM (inactive) | IC50 [2]: > 99 µM (inactive)
